Source: patent US5635509A, “Piperidine derivatives useful as neurokinin antagonists” (Zeneca Limited, priority 1994, dated 1997)
Counter-ions that a name gives are not always drawn.

Key:
human NK2 receptor = target: T1, human NK2 receptor (Homo sapiens, UniProt P21452); test: Neurokinin A (NKA) Receptor-binding Assay (Test A); conditions: typically found
T1 construct: expressed in transfected cells; host or cells: Mouse Erythroleukemia (MEL) cells
T1 sequence (P21452 1-398): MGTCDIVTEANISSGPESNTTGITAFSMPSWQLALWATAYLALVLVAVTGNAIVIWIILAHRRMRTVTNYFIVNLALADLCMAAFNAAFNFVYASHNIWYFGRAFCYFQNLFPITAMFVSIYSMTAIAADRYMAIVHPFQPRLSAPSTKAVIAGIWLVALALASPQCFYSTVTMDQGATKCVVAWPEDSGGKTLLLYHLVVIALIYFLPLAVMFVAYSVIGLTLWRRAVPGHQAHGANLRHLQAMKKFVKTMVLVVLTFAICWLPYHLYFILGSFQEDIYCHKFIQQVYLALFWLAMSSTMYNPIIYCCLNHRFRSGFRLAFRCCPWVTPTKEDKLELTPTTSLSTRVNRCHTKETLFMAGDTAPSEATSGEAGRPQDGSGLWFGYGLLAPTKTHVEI
Description: Neurokinin A (NKA) Receptor-binding Assay (Test A)

guinea pig trachea = target: T2, guinea pig trachea (Cavia porcellus, UniProt Q64077); test: Guinea Pig Assay (Test B), functional assay in guinea pig trachea, antagonism of NKA or [β-ala8]-NKA(4-10) contraction; assay type: cell-based; conditions: -log molar KB, agonist NKA or [β-ala8]-NKA(4-10), 30 min incubation
T2 construct: The trachea are removed, trimmed of excess tissue and divided into two segments; from tissue; host or cells: guinea pig trachea rings
T2 sequence (Q64077 1-402): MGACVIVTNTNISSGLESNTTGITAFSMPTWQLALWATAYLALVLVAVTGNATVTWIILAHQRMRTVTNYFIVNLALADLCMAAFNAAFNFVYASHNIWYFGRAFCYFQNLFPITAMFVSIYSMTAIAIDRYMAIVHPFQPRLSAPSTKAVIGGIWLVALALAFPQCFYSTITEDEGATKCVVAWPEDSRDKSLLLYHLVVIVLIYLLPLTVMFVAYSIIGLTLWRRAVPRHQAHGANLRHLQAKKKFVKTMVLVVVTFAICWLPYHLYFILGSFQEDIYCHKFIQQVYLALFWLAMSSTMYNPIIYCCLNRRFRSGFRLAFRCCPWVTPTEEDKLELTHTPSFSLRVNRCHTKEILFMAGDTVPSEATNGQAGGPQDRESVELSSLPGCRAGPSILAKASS
Procedure: Guinea Pig Assay (Test B)
The chosen agonist is refered to as AG throughout the description.
Male guinea pigs are killed by a sharp blow to the back of the head. The trachea are removed, trimmed of excess tissue and divided into two segments. Each segment is suspended as a ring between stainless steel stirrups in water-jacketed (37.5° C.) tissue baths containing a physiological salt solution of the following composition (mM): NaCl, 119; KCl 4.6; CaCl2, 1.8; MgCl2, 0.5; NaH2 PO4, 1; NaHCO3, 25; glucose, 11; thiorphan, 0.001; and indomethacin, 0.005; gassed continuously with 95% O2 -%5 CO2. […] Contractile responses are measured on a Grass polygraph via Grass FT-03 force transducers.
Tissues are challenged repetitively with a single concentration of AG (10 nM) with intervening 30 min periods with washing to allow the tension to return to baseline levels. […] Percent inhibition is determined when a Compound produces a statistically significant (p<0.05) reduction of the contraction and is calculated using the second contractile response as 100%.
Potencies of selected Compounds are evaluated by calculating apparent dissociation constants (KB) for each concentration tested using the standard equation: […]
where dose ratio=antilog[(AG -log molar EC50 without Compound)--(AG -log molar EC50 with Compound)]. The KB values may be converted to the negative logarithms and expressed as -log molar KB (i.e. pKB). […]

| SMILES | Ki (human NK2 receptor) [nM] | Kb (guinea pig trachea) [nM] |
| --- | --- | --- |
| O[C@@H](c1nccn1-c1ccccc1)[C@H](CCN1CCC(O)(c2ccccc2)CC1)c1ccc(Cl)c(Cl)c1 (racemic) [Example 2, 2-[(1RS,2RS)-2-(3,4-Dichlorophenyl)-1-hydroxy-4-(4-hydroxy-4-phenylpiperidino)butyl]-1-phenylimidazole Hydrochloride] | 34 | – |
| O=C(c1c[nH]nc1-c1ccccc1)C(CCN1CCC(O)(c2ccccc2)CC1)c1ccc(Cl)c(Cl)c1 (centres unmarked) [Example 3, 4-[2-(3,4-Dichlorophenyl)-4-(4-hydroxy-4-phenylpiperidino)butyroyl]-3-phenyl-1H-pyrazole] | – | 251 |
